Source: patent US11571423B2, “Small molecule modulators of human sting” (Curadev Pharma Limited, priority 2017, dated 2023)

Target: hSTING(R232) (Homo sapiens, UniProt Q86WV6, H232R)
Assay: Luciferase reporter assay in HEK293T-hSTING-Luciferase cells, R232 (wild type) human STING
Type: cell-based
Settings: 20 hr stimulation, read-out: R232 human activity (EC50 range)
Description: Stable Cell Line Generation • a) Stable STING expressing cells—Stable HEK293T STING-expressing cell lines were generated using plasmids purchased from Invivogen, CA, USA, that contain STING cDNA cloned into the pUNO-1 vector under hEF1-HTLV promoter and containing the Blasticidin selection cassette. The plasmids hSTING(R232), hSTING(H232), hSTING(HAQ) were directly procured from Invivogen while hSTING (AQ) and hSTING (Q) were derived from hSTING(HAQ) and hSTING (R232) plasmids respectively by using a PCR based site directed mutagenesis method. These vectors were individually transfected into HEK293T cells using Lipofectamine (Invitrogen) and transfected cells were selected under Blasticidin selection. These transfected cells were further subjected to clonal selection using the limiting dilution method to obtain clonally pure populations of HEK cells transfected with each of the above mentioned human STING variants. Only those clones were selected in which ligand independent activation of STING was minimal. • b) Stable Luciferase reporter gene expressing cells—Stable HEK293T Luciferase reporter gene expressing cell lines were generated using pCDNA4 plasmids under an IRF-inducible promoter. This promoter is comprised of five tandem interferon-stimulated response elements (ISRE) fused to an ISG54 minimal promoter. This vector was transfected into HEK293T cells using Lipofectamine (Invitrogen) and transfected cells were selected under Zeocin selection. These transfected cells were further subjected to clonal selection using the limiting dilution method to obtain clonally pure populations of HEK cells transfected the Luciferase reporter construct. Only those clones were selected in which ligand independent induction of luciferase was minimal.
5×10^5 clonally selected HEK293T-hSTING-Luciferase cells were seeded in 384-well plates in growth medium and stimulated with novel compounds. After 20 hr of stimulation supernatant were removed and secretary reporter gene activity were measured using the Quanti-Luc detection system (Invivogen) on a Spectramax i3X luminometer.
In the tables below, EC50 value ranges for exemplary compounds are given.
All compounds were first tested in a primary screen to obtain a ‘fold-induction’ over baseline levels of protein activity.

hSTING(R232), sequence (Q86WV6 whole entry H232R): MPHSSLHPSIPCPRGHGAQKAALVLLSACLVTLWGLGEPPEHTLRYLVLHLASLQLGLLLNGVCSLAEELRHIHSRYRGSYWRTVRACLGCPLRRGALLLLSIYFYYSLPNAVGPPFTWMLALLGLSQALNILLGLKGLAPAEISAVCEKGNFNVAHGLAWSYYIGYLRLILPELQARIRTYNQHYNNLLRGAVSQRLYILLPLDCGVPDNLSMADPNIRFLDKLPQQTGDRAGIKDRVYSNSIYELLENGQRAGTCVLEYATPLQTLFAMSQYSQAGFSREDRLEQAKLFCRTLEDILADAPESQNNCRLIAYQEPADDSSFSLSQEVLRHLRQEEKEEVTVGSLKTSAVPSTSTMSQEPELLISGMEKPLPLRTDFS

SMILES | EC50
CC1c2ccc(C(=O)NCc3c(F)cc(F)cc3F)cc2N(Cc2c(F)cccc2Cl)C(=O)N1C (racemic) [Example 74, 1-(2-chloro-6-fluorobenzyl)-3,4-dimethyl-2-oxo-N-(2,4,6-trifluorobenzyl)-1,2,3,4-tetrahydroquinazoline-7-carboxamide] | < 1000 nM
C[C@@H]1c2ccc(C(=O)NCc3c(F)cc(F)cc3F)cc2N(Cc2c(F)cccc2Cl)C(=O)N1C (single isomer, unassigned) [Example 75] | 1000 to 10000 nM
CN1Cc2ccc(C(=O)NCc3c(F)cc(F)cc3F)cc2N(Cc2cc(F)cc(F)c2)C1=O [Example 1, 1-(3,5-difluorobenzyl)-3-methyl-2-oxo-N-(2,4,6-trifluorobenzyl)-1,2,3,4-tetrahydroquinazoline-7-carboxamide] | < 1000 nM
Cc1ccc(CNC(=O)c2ccc3c(c2)N(Cc2cc(F)cc(F)c2)C(=O)N(C)C3)o1 [Example 2, 1-(3,5-difluorobenzyl)-3-methyl-N-((5-methylfuran-2-yl)methyl)-2-oxo-1,2,3,4-tetrahydroquinazoline-7-carboxamide] | > 10000 nM
O=C(NCc1c(F)cc(F)cc1F)c1ccc2c(c1)N(Cc1cc(F)cc(F)c1)C(=O)N(C1CC1)C2 [Example 3, 3-cyclopropyl-1-(3.5-difluorobenzyl)-2-oxo-N-(2,4,6-trifluorobenzyl)-1,2,3,4-tetrahydroquinazoline-7-carboxamide] | > 10000 nM
CN1Cc2ccc(C(=O)NCc3ccc(F)cc3F)cc2N(Cc2cc(F)cc(F)c2)C1=O [Example 4, N-(2,4-difluorobenzyl)-1-(3,5-difluorobenzyl)-3-methyl-2-oxo-1,2,3,4-tetrahydroquinazoline-7-carboxamide] | < 1000 nM
CN1Cc2ccc(C(=O)NCc3c(F)cc(F)cc3F)cc2N(Cc2c(F)cccc2Cl)C1=O [Example 5, 1-(2-chloro-6-fluorobenzyl)-3-methyl-2-oxo-N-(2,4,6-trifluorobenzyl)-1,2,3,4-tetrahydroquinazoline-7-carboxamide] | < 1000 nM
CN1Cc2ccc(C(=O)NCc3c(F)cc(F)cc3F)cc2N(Cc2ccc(F)cc2)C1=O [Example 6, 1-(4-fluorobenzyl)-3-methyl-2-oxo-N-(2,4,6-trifluorobenzyl)-1,2,3,4-tetrahydroquinazoline-7-carboxamide] | < 1000 nM
CCN1Cc2ccc(C(=O)NCc3c(F)cc(F)cc3F)cc2N(Cc2cc(F)cc(F)c2)C1=O [Example 7, 1-(3,5-difluorobenzyl)-3-ethyl-2-oxo-N-(2,4,6-trifluorobenzyl)-1,2,3,4-tetrahydroquinazoline-7-carboxamide] | 1000 to 10000 nM
CN1Cc2ccc(C(=O)NCc3c(F)cc(F)cc3F)cc2N(Cc2ccc(F)cc2F)C1=O [Example 8, 1-(2,4-difluorobenzyl)-3-methyl-2-oxo-N-(2,4,6-trifluorobenzyl)-1,2,3,4-tetrahydroquinazoline-7-carboxamide] | < 1000 nM
Cc1cccc(F)c1CN1C(=O)N(C)Cc2ccc(C(=O)NCc3c(F)cc(F)cc3F)cc21 [Example 9, 1-(2-fluoro-6-methylbenzyl)-3-methyl-2-oxo-N-(2,4,6-trifluorobenzyl)-1,2,3,4-tetrahydroquinazoline-7-carboxamide] | < 1000 nM
COc1cccc(F)c1CN1C(=O)N(C)Cc2ccc(C(=O)NCc3c(F)cc(F)cc3F)cc21 [Example 10, 1-(2-fluoro-6-methoxybenzyl)-3-methyl-2-oxo-N-(2,4,6-trifluorobenzyl)-1,2,3,4-tetrahydroquinazoline-7-carboxamide] | < 1000 nM
CN1Cc2ccc(C(=O)NCc3c(F)cc(F)cc3F)cc2N(Cc2c(F)cccc2Br)C1=O [Example 11, 1-(2-bromo-6-fluorobenzyl)-3-methyl-2-oxo-N-(2,4,6-trifluorobenzyl)-1,2,3,4-tetrahydroquinazoline-7-carboxamide] | < 1000 nM
CN1Cc2ccc(C(=O)NCc3c(F)cc(F)cc3F)cc2N(Cc2ccccc2F)C1=O [Example 12, 1-(2-fluorobenzyl)-3-methyl-2-oxo-N-(2,4,6-trifluorobenzyl)-1,2,3,4-tetrahydroquinazoline-7-carboxamide] | < 1000 nM
Cc1cccc(CN2C(=O)N(C)Cc3ccc(C(=O)NCc4c(F)cc(F)cc4F)cc32)c1F [Example 13, 1-(2-fluoro-3-methylbenzyl)-3-methyl-2-oxo-N-(2,4,6-trifluorobenzyl)-1,2,3,4-tetrahydroquinazoline-7-carboxamide] | < 1000 nM
CN1Cc2ccc(C(=O)NCc3c(F)cc(F)cc3F)cc2N(Cc2cccc(C(N)=O)c2)C1=O [Example 14, 1-(3-carbamoylbenzyl)-3-methyl-2-oxo-N-(2,4,6-trifluorobenzyl)-1,2,3,4-tetrahydroquinazoline-7-carboxamide] | 1000 to 10000 nM
CC(C)N1Cc2ccc(C(=O)NCc3c(F)cc(F)cc3F)cc2N(Cc2cc(F)cc(F)c2)C1=O [Example 15, 1-(3,5-difluorobenzyl)-3-isopropyl-2-oxo-N-(2,4,6-trifluorobenzyl)-1,2,3,4-tetrahydroquinazoline-7-carboxamide] | 1000 to 10000 nM
CN1Cc2ccc(C(=O)NCc3cc4ccccc4o3)cc2N(Cc2cc(F)cc(F)c2)C1=O [Example 16, N-(benzofuran-2-ylmethyl)-1-(3.5-difluorobenzyl)-3-methyl-2-oxo-1,2,3,4-tetrahydroquinazoline-7-carboxamide] | 1000 to 10000 nM
CN1Cc2ccc(C(=O)NCc3c(F)cc(F)cc3F)cc2N(Cc2ccc(F)cc2Cl)C1=O [Example 17, 1-(2-chloro-4-fluorobenzyl)-3-methyl-2-oxo-N-(2,4,6-trifluorobenzyl)-1,2,3,4-tetrahydroquinazoline-7-carboxamide] | 1000 to 10000 nM
O=C(NCc1c(F)cc(F)cc1F)c1ccc2c(c1)N(Cc1cc(F)cc(F)c1)C(=O)NC2 [Example 18, 1-(3,5-difluorobenzyl)-2-oxo-N-(2,4,6-trifluorobenzyl)-1,2,3,4-tetrahydroquinazoline-7-carboxamide] | 1000 to 10000 nM
CN1Cc2ccc(C(=O)NCc3c(F)cc(F)cc3F)cc2N(Cc2ccccc2Cl)C1=O [Example 19, l-(2-chlorobenzyl)-3-methyl-2-oxo-N-(2,4,6-trifluorobenzyl)-1,2,3,4-tetrahydroquinazoline-7-carboxamide] | 1000 to 10000 nM
O=C(NCc1c(F)cc(F)cc1F)c1ccc2c(c1)N(Cc1c(F)cccc1Cl)C(=O)N(c1ncccn1)C2 [Example 21, 1-(2-chloro-6-fluorobenzyl)-2-oxo-3-(pyrimidin-2-yl)-N-(2,4,6-trifluorobenzyl)-1,2,3,4-tetrahydroquinazoline-7-carboxamide] | > 10000 nM
COc1ccc2cc(CNC(=O)c3ccc4c(c3)N(Cc3c(F)cccc3Cl)C(=O)N(C)C4)oc2c1 [Example 22, 1-(2-chloro-6-fluorobenzyl)-N-((6-methoxybenzofuran-2-yl)methyl)-3-methyl-2-oxo-1,2,3,4-tetrahydroquinazoline-7-carboxamide] | > 10000 nM
CN1Cc2ccc(C(=O)NCc3cc4ccc(F)cc4o3)cc2N(Cc2c(F)cccc2Cl)C1=O [Example 23, 1-(2-chloro-6-fluorobenzyl)-N-((6-fluorobenzofuran-2-yl)methyl)-3-methyl-2-oxo-1,2,3,4-tetrahydroquinazoline-7-carboxamide] | 1000 to 10000 nM
CN1Cc2ccc(C(=O)NCc3cc4cc(F)ccc4o3)cc2N(Cc2c(F)cccc2Cl)C1=O [Example 24, 1-(2-chloro-6-fluorobenzyl)-N-((5-fluorobenzofuran-2-yl)methyl)-3-methyl-2-oxo-1,2,3,4-tetrahydroquinazoline-7-carboxamide] | 1000 to 10000 nM
CN1Cc2ccc(C(=O)NCc3cccc(-c4ncco4)c3)cc2N(Cc2c(F)cccc2Cl)C1=O [Example 25, 1-(2-chloro-6-fluorobenzyl)-3-methyl-N-(3-(oxazol-2-yl)benzyl)-2-oxo-1,2,3,4-tetrahydroquinazoline-7-carboxamide] | > 10000 nM
CN1Cc2ccc(C(=O)NCCn3cncn3)cc2N(Cc2c(F)cccc2Cl)C1=O [Example 26, N-(2-(1H-1,2,4-triazol-l-yl)ethyl)-1-(2-chloro-6-fluorobenzyl)-3-methyl-2-oxo-1,2,3,4-tetrahydroquinazoline-7-carboxamide] | > 10000 nM
CN1Cc2ccc(C(=O)NCc3cc4cc(O)ccc4o3)cc2N(Cc2c(F)cccc2Cl)C1=O [Example 27, 1-(2-chloro-6-fluorobenzyl)-N-((5-hydroxybenzof uran-2-yl)methyl)-3-methyl-2-oxo-1.2,3,4-tetrahydroquin azoline-7-carboxamide] | 1000 to 10000 nM
CN1Cc2ccc(C(=O)NCc3cccc(-c4ccn(C)n4)c3)cc2N(Cc2c(F)cccc2Cl)C1=O [Example 28, 1-(2-chloro-6-fluorobenzyl)-3-methyl-N-(3-(1-methyl-1H-pyrazol-3-yl)benzyl)-2-oxo-1,2,3,4-tetrahydroquinazoline-7-carboxamide] | > 10000 nM
